Source: publication PMC4836378 (Journal of medicinal chemistry, 2016)
Where two headings read alike, the source gives them in different places.

What was measured:
human RARα = molecular target: T1, human RARα (Homo sapiens, UniProt P10276); assay: Luciferase-based RARα reporter assay; type: cell-based; settings: 1 μM compound, data not shown
T1 sequence (P10276 1-462): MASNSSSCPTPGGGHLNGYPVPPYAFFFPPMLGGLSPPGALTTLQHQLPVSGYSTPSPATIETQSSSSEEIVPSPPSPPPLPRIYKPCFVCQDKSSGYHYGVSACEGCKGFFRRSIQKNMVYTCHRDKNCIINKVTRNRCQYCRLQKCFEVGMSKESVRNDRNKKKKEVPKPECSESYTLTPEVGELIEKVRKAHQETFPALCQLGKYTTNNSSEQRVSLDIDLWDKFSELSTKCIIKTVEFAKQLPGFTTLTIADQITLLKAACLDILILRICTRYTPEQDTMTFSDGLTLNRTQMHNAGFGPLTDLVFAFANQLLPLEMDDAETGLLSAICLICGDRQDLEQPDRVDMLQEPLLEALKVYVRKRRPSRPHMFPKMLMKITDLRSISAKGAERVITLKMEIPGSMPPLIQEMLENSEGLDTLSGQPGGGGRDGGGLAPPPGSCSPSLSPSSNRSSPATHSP

human RARγ = molecular target: T2, human RARγ (Homo sapiens, UniProt P13631); assay: Luciferase-based RARγ reporter assay; type: cell-based; settings: 1 μM compound, data not shown
T2 sequence (P13631 1-454): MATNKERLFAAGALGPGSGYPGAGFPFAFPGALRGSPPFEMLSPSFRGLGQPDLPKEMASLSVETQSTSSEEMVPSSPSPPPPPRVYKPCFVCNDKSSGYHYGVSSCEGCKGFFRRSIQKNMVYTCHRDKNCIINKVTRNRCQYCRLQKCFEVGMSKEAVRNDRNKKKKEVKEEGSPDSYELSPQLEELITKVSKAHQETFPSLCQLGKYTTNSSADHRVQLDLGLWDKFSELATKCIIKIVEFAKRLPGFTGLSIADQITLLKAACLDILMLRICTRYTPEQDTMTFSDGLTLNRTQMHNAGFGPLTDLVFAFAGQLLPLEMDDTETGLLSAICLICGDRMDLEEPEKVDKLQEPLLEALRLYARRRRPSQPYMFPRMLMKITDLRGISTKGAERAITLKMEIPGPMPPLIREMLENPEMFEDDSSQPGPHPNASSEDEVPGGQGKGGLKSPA

RARs in HepG2 cells = assay: Induction of RARβ and CYP26A1 mRNA in HepG2 cells; type: cell-based, human; settings: for RAR antagonistic activity: 100 nM atRA + 1 μM compound; for Magnitude of induction of RARβ and CYP26A1 mRNA compared to atRA treatment alone: 100 nM atRA in combination with 1 μM compound; for Activation of RARs (induction of CYP26A1 and RARβ mRNA): 1 μM compound alone, 24 hours, versus vehicle and atRA
CYP3A4 = CYP3A4 (Homo sapiens, UniProt P08684); assay: CYP3A4 inhibition in human liver microsomes; type: in vitro ADME; settings: midazolam; for Percent inhibition of CYP3A4: 10 μM inhibitor, 10 µM
CYP2D6 = CYP2D6 (Homo sapiens, UniProt P10635); assay: CYP2D6 inhibition in human liver microsomes; type: in vitro ADME
CYP2C19 = CYP2C19 (Homo sapiens, UniProt P33261); assay: CYP2C19 inhibition in human liver microsomes; type: in vitro ADME; settings: 10 μM inhibitor, (S)-mephenytoin
CYP2B6 = molecular target: T3, CYP2B6 (Homo sapiens, UniProt P20813); assay: CYP2B6 inhibition in human liver microsomes; type: in vitro ADME; settings: 10 μM inhibitor, bupropion
T3 sequence (P20813 1-491): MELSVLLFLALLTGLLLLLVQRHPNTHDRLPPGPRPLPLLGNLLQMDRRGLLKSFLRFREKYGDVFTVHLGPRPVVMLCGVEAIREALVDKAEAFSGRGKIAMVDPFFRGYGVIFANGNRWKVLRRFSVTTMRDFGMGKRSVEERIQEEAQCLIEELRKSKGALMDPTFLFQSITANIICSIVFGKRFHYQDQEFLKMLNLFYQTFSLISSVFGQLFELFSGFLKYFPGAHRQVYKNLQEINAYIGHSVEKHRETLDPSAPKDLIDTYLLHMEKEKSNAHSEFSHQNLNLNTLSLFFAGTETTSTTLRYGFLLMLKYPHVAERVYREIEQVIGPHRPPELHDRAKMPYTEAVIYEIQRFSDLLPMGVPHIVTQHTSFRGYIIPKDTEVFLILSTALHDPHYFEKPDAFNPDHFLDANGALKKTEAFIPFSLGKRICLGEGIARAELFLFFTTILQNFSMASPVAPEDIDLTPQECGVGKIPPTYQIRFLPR

CYP26A1 = molecular target: T4, CYP26A1 (Homo sapiens, UniProt O43174); assay: CYP26A1 inhibition assay; settings: for Selectivity towards CYP26A1 compared to CYP26B1 (ratio of IC50): CYP26B1 IC50 versus CYP26A1 IC50
T4 sequence (O43174 1-497): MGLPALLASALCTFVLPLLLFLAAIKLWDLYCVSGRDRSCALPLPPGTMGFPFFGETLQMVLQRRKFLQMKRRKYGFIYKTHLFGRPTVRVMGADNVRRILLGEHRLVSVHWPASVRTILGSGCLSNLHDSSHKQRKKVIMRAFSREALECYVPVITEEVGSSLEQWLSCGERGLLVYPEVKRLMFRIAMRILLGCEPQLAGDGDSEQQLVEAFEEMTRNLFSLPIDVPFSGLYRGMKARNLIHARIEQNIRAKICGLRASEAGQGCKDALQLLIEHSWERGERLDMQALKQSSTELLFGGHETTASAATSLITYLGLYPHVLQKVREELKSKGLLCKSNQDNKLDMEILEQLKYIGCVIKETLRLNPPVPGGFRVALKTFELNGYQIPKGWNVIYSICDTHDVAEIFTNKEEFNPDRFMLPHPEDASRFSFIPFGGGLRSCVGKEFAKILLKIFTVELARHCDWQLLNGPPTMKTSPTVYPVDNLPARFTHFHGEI

CYP26B1 = molecular target: T5, CYP26B1 (Homo sapiens, UniProt Q9NR63); assay: CYP26B1 inhibition assay
T5 sequence (Q9NR63 1-512): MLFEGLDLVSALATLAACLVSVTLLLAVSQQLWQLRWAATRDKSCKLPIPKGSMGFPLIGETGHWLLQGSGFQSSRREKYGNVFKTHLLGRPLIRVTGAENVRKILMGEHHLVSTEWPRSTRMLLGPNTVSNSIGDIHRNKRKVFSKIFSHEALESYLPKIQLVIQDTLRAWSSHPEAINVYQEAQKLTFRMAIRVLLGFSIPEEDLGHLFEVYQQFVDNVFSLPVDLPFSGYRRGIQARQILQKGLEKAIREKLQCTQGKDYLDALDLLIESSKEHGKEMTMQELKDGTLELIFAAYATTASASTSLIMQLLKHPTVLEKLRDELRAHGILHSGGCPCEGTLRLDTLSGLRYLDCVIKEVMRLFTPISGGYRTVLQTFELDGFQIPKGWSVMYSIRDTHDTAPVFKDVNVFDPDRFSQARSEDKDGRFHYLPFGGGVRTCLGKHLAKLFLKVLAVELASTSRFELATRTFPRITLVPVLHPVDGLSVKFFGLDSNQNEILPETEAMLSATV

[1] = test system: atRA metabolism in HepG2 cells; settings: HepG2, 24 hour treatment
[2] = substrate: CC1=C(/C=C/C(C)=C\C=C\C(C)=C\C(=O)O)C(C)(C)CCC1; assay: cells, lysate or membranes named; settings: other: recombinant CYP26B1, 50-1000 nM 9-cis-RA; pH 7.4; 37.0 °C

Sequence of CYP3A4 (P08684 whole entry): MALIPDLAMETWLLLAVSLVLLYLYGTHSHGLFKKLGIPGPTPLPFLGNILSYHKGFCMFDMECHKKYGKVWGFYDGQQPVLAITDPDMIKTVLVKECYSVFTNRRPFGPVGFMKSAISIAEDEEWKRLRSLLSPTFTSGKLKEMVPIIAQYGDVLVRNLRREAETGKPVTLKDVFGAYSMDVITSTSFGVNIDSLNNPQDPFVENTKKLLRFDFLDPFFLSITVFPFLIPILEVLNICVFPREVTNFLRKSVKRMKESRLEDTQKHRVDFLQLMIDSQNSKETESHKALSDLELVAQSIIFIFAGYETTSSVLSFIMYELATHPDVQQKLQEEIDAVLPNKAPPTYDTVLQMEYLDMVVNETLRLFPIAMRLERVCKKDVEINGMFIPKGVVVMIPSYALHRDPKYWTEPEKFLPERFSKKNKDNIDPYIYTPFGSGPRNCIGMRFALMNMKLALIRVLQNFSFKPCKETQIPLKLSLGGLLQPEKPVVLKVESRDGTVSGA
Sequence of CYP2D6 (P10635 whole entry): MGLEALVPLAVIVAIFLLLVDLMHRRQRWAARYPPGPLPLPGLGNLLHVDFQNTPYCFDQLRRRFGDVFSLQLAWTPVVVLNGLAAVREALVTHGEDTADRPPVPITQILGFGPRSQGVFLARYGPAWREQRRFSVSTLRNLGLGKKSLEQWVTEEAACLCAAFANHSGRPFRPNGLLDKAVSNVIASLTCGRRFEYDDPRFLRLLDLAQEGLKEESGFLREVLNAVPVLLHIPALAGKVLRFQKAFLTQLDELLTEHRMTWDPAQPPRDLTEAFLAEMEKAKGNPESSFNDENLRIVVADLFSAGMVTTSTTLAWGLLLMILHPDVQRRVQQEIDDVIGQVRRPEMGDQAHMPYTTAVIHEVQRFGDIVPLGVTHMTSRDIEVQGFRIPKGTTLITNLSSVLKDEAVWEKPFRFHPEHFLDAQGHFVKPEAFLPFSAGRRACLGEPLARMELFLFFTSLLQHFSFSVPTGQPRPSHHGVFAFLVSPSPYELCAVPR
Sequence of CYP2C19 (P33261 whole entry): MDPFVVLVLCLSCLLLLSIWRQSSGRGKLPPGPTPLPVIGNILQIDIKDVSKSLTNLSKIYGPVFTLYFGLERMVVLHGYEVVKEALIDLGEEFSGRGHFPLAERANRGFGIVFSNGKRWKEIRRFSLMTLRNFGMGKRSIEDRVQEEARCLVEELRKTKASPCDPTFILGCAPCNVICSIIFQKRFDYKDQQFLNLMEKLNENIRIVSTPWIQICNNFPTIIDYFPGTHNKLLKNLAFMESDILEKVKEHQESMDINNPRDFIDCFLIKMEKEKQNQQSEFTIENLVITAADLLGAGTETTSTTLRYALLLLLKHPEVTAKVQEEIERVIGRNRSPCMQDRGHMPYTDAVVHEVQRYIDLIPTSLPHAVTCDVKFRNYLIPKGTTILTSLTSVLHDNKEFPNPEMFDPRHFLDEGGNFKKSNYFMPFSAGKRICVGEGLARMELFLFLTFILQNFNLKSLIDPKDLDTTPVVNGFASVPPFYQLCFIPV

## CC1(C)CCC(C)(C)c2cc(C3(c4ccc(/C=C/C(=O)O)cc4)OCCO3)ccc21 [Compound 22, (E)-3-(4-(2-(5,5,8,8-Tetramethyl-5,6,7,8-tetrahydronaphthalen-2-yl)-1,3-dioxolan-2-yl)phenyl)-acrylic acid]
Human RARα
  RARα activation: No measurable RARα and RARγ activation was detected
Human RARγ
  RARγ activation: No measurable RARα and RARγ activation was detected
RARs in HepG2 cells
  RAR antagonistic activity: do not exhibit an RAR antagonistic activity
  Magnitude of induction of RARβ and CYP26A1 mRNA compared to atRA treatment alone: significantly increased
  Activation of RARs (induction of CYP26A1 and RARβ mRNA): none of the three compounds resulted in activation
CYP3A4
  Percent inhibition of CYP3A4: free of any CYP3A4 inhibition
CYP2D6; human, probe dextromethorphan
  inhibition at 10 µM: 50%

## CC1(C)CCC(C)(C)c2cc(C3(c4ccc(CCC(=O)O)cc4)OCCO3)ccc21 [Compound 24, 3-{4-[2-(5,5,8,8-Tetramethyl-5,6,7,8-tetrahydronaphthalen-2-yl)-1,3-dioxolan-2-yl]phenyl}4 propanoic acid]
Human RARα
  RARα activation: No measurable RARα and RARγ activation was detected
Human RARγ
  RARγ activation: No measurable RARα and RARγ activation was detected
RARs in HepG2 cells
  RAR antagonistic activity: do not exhibit an RAR antagonistic activity
  Magnitude of induction of RARβ and CYP26A1 mRNA compared to atRA treatment alone: significantly increased
  Activation of RARs (induction of CYP26A1 and RARβ mRNA): none of the three compounds resulted in activation
CYP3A4
  Percent inhibition of CYP3A4: free of any CYP3A4 inhibition
  IC50 for CYP3A4 inhibition: no concentration dependent inhibition
CYP2D6; 10 μM inhibitor, dextromethorphan, 10 µM
  Percent inhibition of CYP2D6: free of any significant inhibition
CYP2C19
  Percent inhibition of CYP2C19: free of any significant inhibition
CYP2B6
  Percent inhibition of CYP2B6: free of any significant inhibition

## CC1(C)CCC(C)(C)c2cc(C3(c4ccc5cc(C(=O)O)ccc5c4)SCCS3)ccc21 [Compound 15b, 6-(2-(5,5,8,8-Tetramethyl-5,6,7,8-tetrahydronaphthalen-2-yl)-1,3-dithiolan-2-yl)-2-naphthoic acid]
CYP26A1
  Selectivity towards CYP26A1 compared to CYP26B1 (ratio of IC50): 10–20 fold

## CCC(CC)C(c1ccc(Nc2nc3ccccc3s2)cc1)n1cncn1 (stereo not shown) [Compound 3, talarozole]
CYP26A1
  Ki: 5.1 nM
CYP26B1
  Ki: 0.46 nM

## CC1(C)CCC(C)(C)c2cc(C3(c4ccc5cc(C(=O)O)ccc5c4)OCCO3)ccc21 [Compound 13b, 6-(2-(5,5,8,8-Tetramethyl-5,6,7,8-tetrahydronaphthalen-2-yl)-1,3-dioxolan-2-yl)-2-naphthoic acid]
CYP26A1
  Selectivity towards CYP26A1 compared to CYP26B1 (ratio of IC50): 10–20 fold

## CC1=C(/C=C/C(C)=C/C=C/C(C)=C/C(=O)O)C(C)(C)CCC1 [atRA, all-trans-retinoic acid]
[1]; 100nM atRA alone
  atRA in cell media: 13.2 ± 0.14 nM
[1]; 1μM atRA alone
  atRA in cell media: 214 ± 13.6 nM

B1: CYP26B1 (Homo sapiens) (protein)
chain: T5 sequence (Q9NR63 1-512)
[2]
  Km: 0.555 µM
  kcat: 3.6 pmol/min/pmol P450
